Laboratory results reported in PubChem BioAssay AID1963843 (Molecular Pharmacology Branch, DTP, NCI, 2024).

System: 616215-338-R-J1-PDC complex spheroid viability
Test: Anticancer human tumor 616215-338-R-J1-PDC patient-derived colon adenocarcinoma cell line growth inhibition [POLQ]
Conditions: for IC50: curve of first compound; for viability, T/C: stronger effect = lower value
Experimental: Multicellular complex tumor spheroid response to Polymerase (POL) inhibitors (novobiocin, ART-558, RP6685) in combination with a variety of drugs and investigational agents in selected tumor cell lines
The POL inhibitors (novobiocin, ART-558, and RP6685) were evaluated both individually and in combination with standard of care and investigational anticancer small molecules within a complex spheroid model of solid tumors. . Complex spheroids include a stromal component modeled by human endothelial cells (HUVEC) and fibroblasts modeled by human mesenchymal stem cells (MSCs). The concentration ranges selected for each drug and investigational agent were based upon clinically achievable concentrations if the clinical Cmax of the agent was known.
Compounds. The drugs and investigational agents: novobiocin (NSC847541), ART-558 (NSC835418), RP-6685 (NSC848927), peposertib (NSC802822), ceralasertib (NSC780249), elimusertib (NSC800525), camonsertib (NSC841442), AZD-1390 (NSC803789), olaparib (NSC753686), talazoparib (NSC767125), rucaparib (NSC756644), sotorasib (NSC818433), MRTX-1133 (NSC836407), SN-38 (NSC673596), topotecan (NSC609699), epotoside (NSC141540), doxorubicin (NSC123127), gemcitabine (NSC613327), 5-fluorouracil (NSC19893), paclitaxel (NSC125973), vemurafenib (NSC761431), MSA-2 (NSC828583), SN-011 (NSC837082), adavosertib (NSC754352), prexasertib (NSC758257), carboplatin (NSC241240) and oxaliplatin (NSC266046), were obtained from the National Cancer Institute (NCI) Developmental Therapeutics Program Chemical Repository (21). The FDA-approved anticancer drug set is available from the Developmental Therapeutics Program at https://dtp.cancer.gov/organization/dscb/obtaining/. […] The stock solutions were prepared in dimethyl sulfoxide (DMSO, Sigma-Aldrich, St. Louis, MO, cat. D2650), except for the platinum compounds which were prepared in saline (Quality Biological, Gaithersburg, MD, cat. 114-055-101), at 800-fold the tested concentration and stored at -70 degrees C prior to their use. All drugs and investigational agents were tested over a range starting from a high concentration at or near the clinical Cmax and decreasing in half-log increments. If the clinical Cmax for an agent had not been determined, the highest concentration tested was 10 microM, except for SN-38, which was tested at a high concentration of 1 microM.
Cell Culture. All cells were maintained in an incubator at 37 degrees C and 5% CO2 with 95% humidity. The PDC lines were cultured according to standard operating procedures established by the NCI PDMR (https://pdmr.cancer.gov). Table 3 of the manuscript, lists the cell lines along with the number of the three cell types plated to form the mct-spheroids and media for tumor cell growth. After thawing, all PDC lines, except 997537-175-T-J1-PDC and 415267-285-R-J2-PDC, were cultured in Matrigel-coated flasks prepared with a working solution of 1X Ham's F-12 nutrient mix, without supplementation (Thermo Fisher Scientific, cat. 11765054), 100 U/mL penicillin-streptomycin (Thermo Fisher Scientific, cat. 15140122), and 2.5% Matrigel (Corning Inc., Corning, NY, cat. 354248) for the first three passages. The two PDC lines 997537-175-T-J1-PDC and 415267-285-R-J2-PDC were cultured on uncoated flasks. The 857933-349-R-J2-PDC line was cultured in 6C/Colon 1B media containing advanced DMEM/F-12 (Thermo Fisher Scientific, cat. 12634028), 10 mM HEPES (Thermo Fisher Scientific, cat. 15630080), 1X GlutaMAX supplement (Thermo Fisher Scientific, cat. 35050061), 0.1 mg/mL primocin (InvivoGen, San Diego, CA, cat. ant-pm-2), 10% defined fetal bovine serum, heat inactivated (HyClone Laboratories Inc., Logan, UT, cat. SH30070.03HI), 50% L-WRN conditioned media (ATCC, cat. CRL-3276), 1.25 mM N-Acetyl-L-cysteine (Sigma-Aldrich, cat. A9165), 10 mM nicotinamide (Sigma-Aldrich, cat. N0636), 1X B-27 supplement (Thermo Fisher Scientific, cat. 17504044), 1X N-2 supplement (Thermo Fisher Scientific, cat. […]

[1] = second compound 0.0316 µM, first compound 0.0316 µM
[2] = second compound 0.0316 µM, first compound 0.1 µM
[3] = second compound 0.0316 µM, first compound 0.316 µM
[4] = second compound 0.0316 µM, first compound 1 µM
[5] = second compound 0.0316 µM, first compound 3.16 µM
[6] = second compound 0.0316 µM, first compound 10 µM
[7] = second compound 0.1 µM, first compound 0.0316 µM
[8] = second compound 0.1 µM, first compound 0.1 µM
[9] = second compound 0.1 µM, first compound 0.316 µM
[10] = second compound 0.1 µM, first compound 1 µM
[11] = second compound 0.1 µM, first compound 3.16 µM
[12] = second compound 0.1 µM, first compound 10 µM
[13] = second compound 0.316 µM, first compound 0.0316 µM
[14] = second compound 0.316 µM, first compound 0.1 µM
[15] = second compound 0.316 µM, first compound 0.316 µM
[16] = second compound 0.316 µM, first compound 1 µM
[17] = second compound 0.316 µM, first compound 3.16 µM
[18] = second compound 0.316 µM, first compound 10 µM
[19] = second compound 1 µM, first compound 0.0316 µM
[20] = second compound 1 µM, first compound 0.1 µM
[21] = second compound 1 µM, first compound 0.316 µM
[22] = second compound 1 µM, first compound 1 µM
[23] = second compound 1 µM, first compound 3.16 µM
[24] = second compound 1 µM, first compound 10 µM
[25] = second compound 3.16 µM, first compound 0.0316 µM
[26] = second compound 3.16 µM, first compound 0.1 µM
[27] = second compound 3.16 µM, first compound 0.316 µM
[28] = second compound 3.16 µM, first compound 1 µM
[29] = second compound 3.16 µM, first compound 3.16 µM
[30] = second compound 3.16 µM, first compound 10 µM
[31] = second compound 10 µM, first compound 0.0316 µM
[32] = second compound 10 µM, first compound 0.1 µM
[33] = second compound 10 µM, first compound 0.316 µM
[34] = second compound 10 µM, first compound 1 µM
[35] = second compound 10 µM, first compound 3.16 µM
[36] = second compound 10 µM, first compound 10 µM
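Further: spheroids exposed to compounds for one week before readout.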
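Wherever viability, T/C is given: percent viability relative to DMSO vehicle wells taken as 100%.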

For C#Cc1c(F)ccc2cc(O)cc(-c3ncc4c(N5CC6CCC(C5)N6)nc(OCC56CCCN5CC(F)C6)nc4c3F)c12 (centres undefined) + COC1C(OC(N)=O)C(O)C(Oc2ccc3c(O)c(NC(=O)c4ccc(O)c(CC=C(C)C)c4)c(=O)oc3c2C)OC1(C)C, the IC50 (second compound 0.0316 µM) was over 10 µM, the IC50 (second compound 0.1 µM) was over 10 µM and the IC50 (second compound 0.316 µM) was over 10 µM. It also gave an IC50 (second compound 1 µM) of over 10 µM, an IC50 (second compound 3.16 µM) of over 10 µM and an IC50 (second compound 10 µM) of over 10 µM. The viability, T/C [1] was 108%, the viability, T/C [2] was 109% and the viability, T/C [3] was 101%. It also gave a viability, T/C [4] of 112%, a viability, T/C [5] of 113% and a viability, T/C [6] of 79.2%. The viability, T/C [7] was 103%, the viability, T/C [8] was 105% and the viability, T/C [9] was 98.2%. The viability, T/C [10] was 108%, the viability, T/C [11] was 95.8% and the viability, T/C [12] was 64.1%. It also gave a viability, T/C [13] of 110%, a viability, T/C [14] of 102% and a viability, T/C [15] of 110%. The viability, T/C [16] was 105%, the viability, T/C [17] was 103% and the viability, T/C [18] was 58.1%. The viability, T/C [19] was 105%, the viability, T/C [20] was 108% and the viability, T/C [21] was 109%. For the same compound, the viability, T/C [22] was 94.7%, the viability, T/C [23] was 103% and the viability, T/C [24] was 71.3%. It also gave a viability, T/C [25] of 105%, a viability, T/C [26] of 109% and a viability, T/C [27] of 103%. For the same compound, the viability, T/C [28] was 110%, the viability, T/C [29] was 104% and the viability, T/C [30] was 64%. It also gave a viability, T/C [31] of 94.5%, a viability, T/C [32] of 103% and a viability, T/C [33] of 109%. It also gave a viability, T/C [34] of 106%, a viability, T/C [35] of 100% and a viability, T/C [36] of 82.6%.

Work on CCc1cc2c(N3CCc4c(cc(Cn5ccnc5)cc4-c4cn(C)nc4C(F)(F)F)C3=O)ccnc2c(OC)n1 + COC1C(OC(N)=O)C(O)C(Oc2ccc3c(O)c(NC(=O)c4ccc(O)c(CC=C(C)C)c4)c(=O)oc3c2C)OC1(C)C yielded an IC50 (second compound 0.0316 µM) of over 10 µM, an IC50 (second compound 0.1 µM) of over 10 µM and an IC50 (second compound 0.316 µM) of over 10 µM. For the same compound, the IC50 (second compound 1 µM) was 9.75 µM, the IC50 (second compound 3.16 µM) was 9.64 µM and the IC50 (second compound 10 µM) was 8.33 µM. For the same compound, the viability, T/C [1] was 97.2%, the viability, T/C [2] was 108% and the viability, T/C [3] was 111%. It also gave a viability, T/C [4] of 106%, a viability, T/C [5] of 80% and a viability, T/C [6] of 52.8%. The viability, T/C [7] was 106%, the viability, T/C [8] was 108% and the viability, T/C [9] was 92.9%. It also gave a viability, T/C [10] of 106%, a viability, T/C [11] of 77% and a viability, T/C [12] of 50.3%. It also gave a viability, T/C [13] of 96%, a viability, T/C [14] of 103% and a viability, T/C [15] of 115%. The viability, T/C [16] was 102%, the viability, T/C [17] was 66.5% and the viability, T/C [18] was 53.8%. The viability, T/C [19] was 105%, the viability, T/C [20] was 98.7% and the viability, T/C [21] was 99%. The viability, T/C [22] was 100%, the viability, T/C [23] was 81.4% and the viability, T/C [24] was 49.3%. For the same compound, the viability, T/C [25] was 106%, the viability, T/C [26] was 100% and the viability, T/C [27] was 103%. The viability, T/C [28] was 98.2%, the viability, T/C [29] was 74.8% and the viability, T/C [30] was 49.2%. The viability, T/C [31] was 109%, the viability, T/C [32] was 97.7% and the viability, T/C [33] was 102%. The viability, T/C [34] was 93.1%, the viability, T/C [35] was 67.7% and the viability, T/C [36] was 46.7%.
